Data on ten compounds can be found in article PMC9571170, “Exploring Active Ingredients, Beneficial Effects, and Potential Mechanism of Allium tenuissimum L. Flower for Treating T2DM Mice Based on Network Pharmacology and Gut Microbiota” (Nutrients, 2022).

Some results are limits rather than exact numbers.

Data set [1] has as its target α−Glucosidase (from yeast). The data set can be described thus: In vitro α−glucosidase inhibitory activity assay (PNPG substrate). In kind it is biochemical. As to conditions: n=3; acarbose positive control. As to the method:
The α−glucosidase inhibitory activity assay method of A. tenuissimum flower flavonoids was slightly modified based on previous studies. A 96−well plate was used for preparing the mixture consisting of 0.1 M PBS (pH 6.8), 1.0 mg/mL sample solution, and 2 U/mL α−glucosidase, which were incubated at 37 °C for 10 min. 20 μL PNPG solution (2.5 Mm, dissolved in PBS) was added to each well to start the reaction and incubated at 37 °C. Twenty minutes later, 80 μL Na2CO3 solution (0.2 mol/L) was added to each well to terminate the reaction. The absorbance was measured at 405 nm by Tecan Infinite M200 PRO (Tecan Trading Co. Ltd., Shanghai, China). […] The inhibitory rate was calculated by the absorbance formula below:Inhibition% = [1 − (Aa − Ab) / Ac] × 100% a. 20 μL PNPG + 80 μL Na2CO3 + 20 μL PBS + 20 μL sample + 20 μL enzyme; b. 20 μL PNPG + 80 μL Na2CO3 + 40 μL PBS +20 μL sample; c. 20 μL PNPG + 80 μL Na2CO3 + 40 μL PBS + 20 μL enzyme.

On the set-up of data set [2]: method as in TCMSP database. The settings on record: filter condition; ref TCMSP database; cited from earlier work.

As a reminder, the IC50 is the concentration that gives 50% inhibition. High values mean weaker potency in that assay, low ones greater potency in that assay.

Take `COc1ccc(-c2oc3cc(O)cc(O)c3c(=O)c2O)cc1CC=C(C)C` [AF−38, macasiamenol B]: the IC50 in data set [1] was 230 ± 34 µM.

With `O=c1c(OC2OC(COC3OC(CO)C(O)C(O)C3OC3OC(CO)C(O)C(O)C3O)C(O)C(O)C2O)c(-c2ccc(O)cc2)oc2cc(O)cc(O)c12` (stereo not drawn) [AF−34, kaempferol 3−O−β−D−glucopyranosyl−(1→2) −β−D−glucopyranosyl−(1→6)−β−D−glucopyranodide], the IC50 in data set [1] came out at 335 ± 1 µM.

In turn, `COc1ccc(-c2oc3cc(OC)cc(O)c3c(=O)c2OC2OC(CO)C(O)C(O)C2O)cc1` (centres unmarked) [AF−15, kaempferol−4’,7−dimethyl−3−O−glucoside] came in with an IC50 in data set [1] of 506 ± 1 µM. This IC50 is about 1.5-fold higher than that of the compound before.

Take `O=C(C=Cc1ccc(O)cc1)OCC1OC(Oc2c(-c3ccc(O)cc3)oc3cc(O)cc(O)c3c2=O)C(O)C(O)C1OC(=O)C=Cc1ccc(O)cc1` (stereo not drawn) [AF−33, kaempferol−3−O−β−D−4′′,6′′− di−(E)−p−coumaroyl glucoside]: the half-inhibitory concentration (IC50) in data set [1] is 300 ± 23 µM.

Regarding `O=c1c(O)c(-c2ccc(O)cc2)oc2cc(O)cc(O)c12` [AF−8, kaempferol], in data set [2], the “Oral bioavailability (OB)” value is at least 30%.

Consider `CN1[C@H]2C[C@H](OC(=O)[C@H](CO)c3ccccc3)C[C@@H]1[C@@H](O)C2` [AF−23, anisodamine], for which the “Oral bioavailability (OB)” value in data set [2] is on record as at least 30%.

The compound `CC(=O)OCC1OC(OC2C(C)OC(Oc3c(-c4ccc(O)cc4)oc4cc(O)cc(O)c4c3=O)C(O)C2O)C(O)C(O)C1O` (centres unmarked) [AF−1, multiflorin A] had an IC50 in data set [1] of 289 ± 14 µM.

Take `COc1ccc(-c2oc3cc(O)cc(O)c3c(=O)c2OC2OC(CO)C(O)C(O)C2O)cc1O` (centres unmarked) [AF−40, tamarixin]: the IC50 in data set [1] was determined as 282 ± 3 µM.

Take `COc1cc(-c2oc3cc(O)cc(O)c3c(=O)c2OC2OC(COC(C)=O)C(O)C(O)C2O)ccc1O` (stereo not drawn) [AF−36, isorhamnetin 3−O−β−D−(6−acetyl)−galactopyranoside]: in data set [1], the half-maximal inhibitory concentration (IC50) stood at 326 ± 13 µM.

For the compound `CC(C)=CCc1cc(-c2oc3cc(O)cc(O)c3c(=O)c2O)ccc1O` [AF−11, isolicoflavonol], in data set [2], the “Oral bioavailability (OB)” value was at least 30%. In data set [1], this compound displayed an IC50 of 176 ± 6 µM.
